How the values were obtained:
Format in all cases: cell-based
Conditions in all cases: Flip-In 293 cells stably expressing eGFP-bromodomain fusion and mCherry; compound titrated, 5 h incubation; FIG. 1, 2A, 2B
[1] = system: BRD4BD1, BRD4BD2; test: Degradation of eGFP-fused BRD4 bromodomains, eGFP/mCherry reporter flow cytometry
Description: (§1) BRD2BD1, BRD2BD2, BRD3BD1, BRD3BD2, BRD4BD1, and BRD4BD2 were subcloned into mammalian pcDNA5/FRT Vector (Ampicillin and Hygromycin B resistant) modified to contain MCS-eGFP-P2A-mCherry. Stable cell lines expressing eGFP-protein fusion and mCherry reporter were generated using Flip-In 293 system. Plasmid (0.3 μg) and pOG44 (4.7 μg) DNA were preincubated in 100 μL of Opti-MEM™ I (Gibco™, Life Technologies™) media containing 0.05 mg/ml Lipofectamine® 2000 (Invitrogen™) for 20 min and added to Flip-In 293 cells containing 1.9 ml of Dulbecco's Modified Eagle's medium (DMEM) (Gibco™, Life Technologies™) per well in a 6-well plate format (Falcon, 353046). […]
(§2) Cells were seeded at 30-50% confluency in either 24, 48 or 96 well plates (3524, 3548, 3596 respectively, Costar) a day before compound treatment. The inventive compound 3 was titrated and then was incubated with cells for 5 h following trypsinization and resuspension in DMEM, transferred into 96-well plates (353910, Falcon®) and analyzed by flow cytometer (Guava® easyCyte™ HT, Millipore™). Signal from at least 3000 events per well was acquired and the eGFP and mCherry florescence monitored. Data was analyzed using FlowJo® (FlowJo®, LCC). […] The eGFP protein abundance relative to mCherry was then quantified as a ten-fold amplified ratio for each individual cell using the formula: 10× eGFP/mCherry. […]

[2] = system: BRD3BD1, BRD3BD2; test: Degradation of eGFP-fused BRD3 bromodomains, eGFP/mCherry reporter flow cytometry
Description: as §1, §2

[3] = system: BRD2BD1, BRD2BD2; test: Degradation of eGFP-fused BRD2 bromodomains, eGFP/mCherry reporter flow cytometry
Description: as §1, §2

Row | Structure (SMILES) | degradation of stably expressed bromodomains of BRD4 (GFP/mCherry ratio) [1] | degradation of stably expressed bromodomains of BRD3 (GFP/mCherry ratio) [2] | degradation of stably expressed bromodomains of BRD2 (GFP/mCherry ratio) [3]
1 | COC(=O)C[C@@H]1N=C(c2ccc(Cl)cc2)c2c(sc(C(=O)NCCCCCCCCNc3cccc(C(=O)NC4CCC(=O)NC4=O)n3)c2C)-n2c(C)nnc21 (stereo partly drawn) [compound 1, methyl 2-((6S)-4-(4-chlorophenyl)-2-((8-((6-((2,6-dioxopiperidin-3-yl)carbamoyl)pyridin-2-yl)amino)octyl)carbamoyl)-3,9-dimethyl-6H-thieno[3,2-f][1,2,4]triazolo[4,3-a][1,4]diazepin-6-yl)acetate] | able to efficiently degrade | able to efficiently degrade | able to efficiently degrade
2 | COC(=O)C[C@@H]1N=C(c2ccc(Cl)cc2)c2c(sc(C(=O)NCCCCCNc3cccnc3C(=O)NC3CCC(=O)NC3=O)c2C)-n2c(C)nnc21 (stereo partly drawn) [compound 3, methyl 2-((6S)-4-(4-chlorophenyl)-2-((5-((2-((2,6-dioxopiperidin-3-yl)carbamoyl)pyridin-3-yl)amino)pentyl)carbamoyl)-3,9-dimethyl-6H-thieno[3,2-f][1,2,4]triazolo[4,3-a][1,4]diazepin-6-yl)acetate] | only the first bromodomain of BRD4 is degraded |  | 
